Patent publication US20210221784A1, “COMPOUNDS AND COMPOSITIONS FOR THE TREATMENT OF PAIN” (Université de Strasbourg, priority 2018, published 2021)

What was measured:
C57BF6/N male mice [1] = assay: Morphine-induced hyperalgesia and tolerance, tail immersion test; type: in vivo
hNPFFR1 = molecular target: T1, hNPFFR1 (Homo sapiens, UniProt Q9GZQ6); assay: Radioligand binding competition, membranes from CHO cells expressing hNPFFR1; conditions: 0.015 nM [D-Tyr1[125I], N-MePhe3]-NPFF, 1 hr at 25° C., read-out: NPFF1-R Ki
T1 construct: expressed in transfected cells; membranes
T1 sequence (Q9GZQ6 whole entry): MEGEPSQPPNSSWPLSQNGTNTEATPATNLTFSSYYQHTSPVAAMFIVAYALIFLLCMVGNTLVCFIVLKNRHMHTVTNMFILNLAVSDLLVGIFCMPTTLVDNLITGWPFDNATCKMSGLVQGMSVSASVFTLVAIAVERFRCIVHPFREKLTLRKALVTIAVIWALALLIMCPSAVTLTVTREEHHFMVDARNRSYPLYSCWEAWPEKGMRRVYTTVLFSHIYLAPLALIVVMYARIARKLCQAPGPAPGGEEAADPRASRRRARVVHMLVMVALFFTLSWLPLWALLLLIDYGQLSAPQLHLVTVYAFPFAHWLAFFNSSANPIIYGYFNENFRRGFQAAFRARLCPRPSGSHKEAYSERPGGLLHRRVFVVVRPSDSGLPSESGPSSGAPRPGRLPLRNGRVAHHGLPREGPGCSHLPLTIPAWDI
Method in brief: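 CHO membranes (5–10 μg protein) stably expressing hNPFFR1 or hNPFFR2 incubated 1 h at 25 °C with 0.015 nM [D-Tyr1[125I], N-MePhe3]-NPFF in HEPES pH 7.4 with Ca2+, Mg2+, 0.1% BSA. Non-specific binding defined with 10 μM RFRP-3; bound radioactivity counted after GF/B filtration.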

hNPFF1R = molecular target: T2, hNPFF1R (Homo sapiens, UniProt Q9GZQ6); assay: Glo Sensor cAMP assay in HEK-293 expressing hNPFF1R; type: cell-based
T2 construct: expressed in transfected cells
T2 sequence (Q9GZQ6 whole entry): as above
Experimental: The functional characterization of the selected compounds was performed by Glo Sensor cAMP kinetic assay, a validated approach for measuring Gαi/s activation by GPCRs (DiRaddo et al., 2014; Gilissen et al., 2015). HEK-Glo cells expressing either NPFF1 or NPFF2 receptors were suspended (10^6 cells per mF) in physiological Hepes buffer (10 mM HEPES, 0.4 mM NaH2PO4, 137.5 mM NaCl, 1.25 mM MgCl2, 1.25 mM CaCl2, 6 mM KCl, 10 mM glucose and 1 mg/mF bovine serum albumin, pH 7.4) supplemented with 1 mM D-Fuciferine. After equilibration for 2 h at 25° C., luminescence levels were recorded in real time in 96-well plates using a Flexstation^R 3 (Molecular Devices, Sunnyvale Calif., USA). Non-specific effect of the different compounds was evaluated in HEK-Glo cells without any recombinant human RF-amide receptors. To test the agonist activity on NPFF1R and NPFF2R, compounds were injected 15 minutes before addition of forskolin (0.5 μM) and readings were pursued for 90 minutes. To evaluate their antagonist properties, compounds were pre-incubated with cells for 15 minutes before prototypical agonists for NPFF1R (RFRP-3) and NPFF2R (NPFF) receptors. According to their preferential coupling to Gi/o proteins, the stimulation of NPFF1R and NPFF2R by agonists was monitored as a dose-dependent reduction in steady-state luminescence levels, reflecting the inhibition of forskolin-induced cAMP accumulation. Experiments were performed at 25° C. in the presence of 0.5 mM IBMX to prevent the degradation of cAMP by phosphodiesterases.

C57BF6/N male mice [2] = assay: Neuropathic pain model (chronic constriction injury), Von Frey test; type: in vivo
C57BF6/N male mice [3] = assay: Fentanyl-induced hyperalgesia, tail immersion test; type: in vivo; conditions: for Hyperalgesia index (HI) d1 to d4: 1j 5 mg/kg p.o. or vehicle 35 min before fentanyl 4×60 μg/kg s.c.

Nc1ccc(-c2cccc(Cl)c2Cl)c(N)n1 [Compound 1j, 3-(2,3-dichlorophenyl)pyridine-2,6-diamine]
Hyperalgesia index (HI) d1 to d7 (C57BF6/N male mice [1]; daily morphine 10 mg/kg s.c., 1j 5 mg/kg oral or vehicle before morphine, FIG. 2B): 0.1±3
morphine analgesia at day 0, effect of co-administration (C57BF6/N male mice [1]; mouse, in vivo): not significantly modified
peak of analgesia at day 0 (C57BF6/N male mice [1]; mouse, in vivo): 19±0.8
peak of analgesia at day 8 (C57BF6/N male mice [1]; mouse, in vivo): 14±0.9
Ki (hNPFFR1): 20 ± 2 nM
antagonist activity: effect on dose response curve of NPVF (RFRP-3), forskolin-stimulated cAMP (hNPFF1R; HEK-293 cells expressing hNPFF1R, FIG. 7): efficiently shifted to the right the dose response curve of NPVF
effect of compound tested alone (agonist activity) (hNPFF1R; cells expressing hNPFF1R, forskolin 0.5 μM): had no effect
mechanical allodynia after CCI (allodynia index d11-d21), drug alone (C57BF6/N male mice [2]; morphine 3 mg/kg sc. alone or 1j 5 mg/kg p.o. alone, FIG. 4B): significantly attenuated the mechanical allodynia
mechanical allodynia after CCI (allodynia index d11-d21), pre-treatment before morphine (C57BF6/N male mice [2]; mouse, in vivo): significantly enhanced morphine analgesia effect on neuropathic pain
fentanyl hyperalgesia (hyperalgesia index d1 to d4) (C57BF6/N male mice [3]; 5 mg/kg sc. 20 min before fentanyl 4×60 μg/kg sc., FIG. 6B): significant anti-hyperalgesic effect
development of hyperalgesia induced by fentanyl, dose effect (C57BF6/N male mice [3]; 0.2, 1 and 5 mg/kg, sc, 20 min before fentanyl, FIG. 1E, F): dose-dependently prevented
analgesic effect of fentanyl (AUC) (C57BF6/N male mice [3]; 1j 5 mg/kg p.o. in Kolliphor EL or vehicle before fentanyl 4×60 μg/kg s.c., FIG. 1C): 11.4±3
ED50 (C57BF6/N male mice [3]; Mus musculus, sc, doses 0.2, 1 and 5 mg/kg, FIG. 1E, read-out: ED50, prevention of fentanyl-induced hyperalgesia): ~0.5 mg/kg
effect of compound alone on basal nociceptive response (C57BF6/N male mice [3]; mice, tail immersion 48° C., FIG. 1A): did not have any effect
Hyperalgesia index (HI) d1 to d4 (C57BF6/N male mice [3]; vehicle Kolliphor EL): −1.8±1.2
Hyperalgesia index (HI) d1 to d4 (C57BF6/N male mice [3]; vehicle tween 80): 2.2±0.3
